Data on 23 molecules can be found in patent publication US20070293484A1, “Thiophene Heteroaryl Amines” (SUGEN, INC., priority 2004, published 2007).

In one experiment the target is T1, GST-Flk1 (Mus musculus, UniProt P35918).
T1 construct: GST-Flk1cd purified from sf9 recombinant baculovirus transformation (SUGEN, Inc.); host or cells: Sf9 insect cells (recombinant baculovirus)
As to the kind of experiment: GST-FLK-1 bioassay (ELISA, tyrosine kinase activity on poly(glu,tyr)). The class given is biochemical. As for the experimental part:
The assays described herein are performed in an ELISA (Enzyme-Linked Immunosorbent Sandwich Assay) format (Voller, et al., 1980, “Enzyme-Linked Immunosorbent Assay,” Manual of Clinical Immunology, 2d ed., Rose and Friedman, Am. Soc. Of Microbiology, Washington, D.C., pp. 359-371). The general procedure is as follows: a compound is introduced to cells expressing the test kinase, either naturally or recombinantly, for a selected period of time after which, if the test kinase is a receptor, a ligand known to activate the receptor is added. The cells are lysed and the lysate is transferred to the wells of an ELISA plate previously coated with a specific antibody recognizing the substrate of the enzymatic phosphorylation reaction. Non-substrate components of the cell lysate are washed away and the amount of phosphorylation on the substrate is detected with an antibody specifically recognizing phosphotyrosine compared with control cells that were not contacted with a test compound.
This assay analyzes the tyrosine kinase activity of GST-Flk1 on poly(glu,tyr) peptides.
• 1. Corning 96-well ELISA plates (Corning Catalog No. 5805-96). • 2. poly(glu,tyr) 4:1, lyophilizate (Sigma Catalog #P0275). • 3. Preparation of poly(glu,tyr)(pEY) coated assay plates: Coat 2 ug/well of poly(glu,tyr)(pEY) in 100 μL PBS, hold at room temperature for 2 hours or at 4° C. overnight. Cover plates well to prevent evaporation. • 4. PBS Buffer: for 1 L, mix 0.2 g KH2PO4, 1.15 g Na2HPO4, 0.2 g KCl and 8 g NaCl in approx. 900 ml dH2O. When all reagents have dissolved, adjust the pH to 7.2 with HCl. Bring total volume to 1 L with dH2O. • 5. PBST Buffer: to 1 L of PBS Buffer, add 1.0 ml Tween-20. • 6. TBB—Blocking Buffer: for 1 L, mix 1.21 g TRIS, 8.77 g NaCl, 1 ml TWEEN-20 in approximately 900 ml dH2O. Adjust pH to 7.2 with HCl. Add 10 g BSA, stir to dissolve. Bring total volume to 1 L with dH2O. Filter to remove particulate matter. • 7. 1% BSA in PBS: To make a 1× working solution, add 10 g BSA to approx. 990 ml PBS buffer, stir to dissolve. Adjust total volume to 1 L with PBS buffer, filter to remove particulate matter. • 8. 50 mM Hepes pH 7.5. • 9. GST-Flk1cd purified from sf9 recombinant baculovirus transformation (SUGEN, Inc.). • 10. 4% DMSO in dH2O. • 11. 10 mMATP in dH2O. • 12. 40 mM MnCl2 • 13. Kinase Dilution Buffer (KDB): mix 10 ml Hepes (pH 7.5), 1 ml 5M NaCl, 40 μL 100 mM sodium orthovanadate and 0.4 ml of 5% BSA in dH2O with 88.56 ml dH2O. • 14. NUNC 96-well V bottom polypropylene plates, Applied Scientific Catalog #AS-72092 • 15. EDTA: mix 14.12 g ethylenediaminetetraacetic acid (EDTA) to approx. 70 ml dH2O. Add 10 N NaOH until EDTA dissolves. Adjust pH to 8.0. Adjust total volume to 100 ml with dH2O. • 16. 1^0 Antibody Dilution Buffer: mix 10 ml of 5% BSA in PBS buffer with 89.5 ml TBST. • 17. Anti-phosphotyrosine monoclonal antibody conjugated to horseradish peroxidase (PY99 HRP, Santa Cruz Biotech). • 18. 2,2′-Azinobis(3-ethylbenzthiazoline-6-sulfonic acid (ABTS, Moss, Cat. No. ABST). • 19. 10% SDS. Procedure: • 1. Coat Corning 96-well ELISA plates with 2 μg of polyEY peptide in sterile PBS as described in step 3 of Materials and Reagents. • 2. Remove unbound liquid from wells by inverting plate. Wash once with TBST. Pat the plate on a paper towel to remove excess liquid. • 3. Add 100 μl of 1% BSA in PBS to each well. Incubate, with shaking, for 1 hr. at room temperature. • 4. Repeat step 2. • 5. Soak wells with 50 mM HEPES (pH7.5) (150 μl/well). • 6. Dilute test compound with dH2O/4% DMSO to 4 times the desired final assay concentration in 96-well polypropylene plates. • 7. Add 25 μl diluted test compound to ELISA plate. In control wells, place 25 μl of dH2O/4% DMSO. • 8. Add 25 μl of 40 mM MnCl2 with 4×ATP (2 μM) to each well. • 9. Add 25 μl 0.5M EDTA to negative control wells. • 10. Dilute GST-Flk1 to 0.005 μg (5 ng)/well with KDB. • 11. Add 50 μl of diluted enzyme to each well. • 12. Incubate, with shaking, for 15 minutes at room temperature. • 13. […]
(In general: ELISA stands for enzyme-linked immunosorbent assay.)

A further experiment has as its target T2, PDGFR (Homo sapiens, UniProt P09619).
T2 construct: SUGEN, Inc; host or cells: NIH 3T3 cell lysate; receptor captured on plate with monoclonal anti-PDGFR antibody 28D4C10
As to the kind of experiment: PDGFR bioassay (ELISA, in vitro kinase activity). In kind it is biochemical. The note with it: PDGFR-β expressing NIH 3T3 cell lysate; read-out: IC50 (μM) PDGF-R.

T2 sequence (P09619 33-1106, species assumed): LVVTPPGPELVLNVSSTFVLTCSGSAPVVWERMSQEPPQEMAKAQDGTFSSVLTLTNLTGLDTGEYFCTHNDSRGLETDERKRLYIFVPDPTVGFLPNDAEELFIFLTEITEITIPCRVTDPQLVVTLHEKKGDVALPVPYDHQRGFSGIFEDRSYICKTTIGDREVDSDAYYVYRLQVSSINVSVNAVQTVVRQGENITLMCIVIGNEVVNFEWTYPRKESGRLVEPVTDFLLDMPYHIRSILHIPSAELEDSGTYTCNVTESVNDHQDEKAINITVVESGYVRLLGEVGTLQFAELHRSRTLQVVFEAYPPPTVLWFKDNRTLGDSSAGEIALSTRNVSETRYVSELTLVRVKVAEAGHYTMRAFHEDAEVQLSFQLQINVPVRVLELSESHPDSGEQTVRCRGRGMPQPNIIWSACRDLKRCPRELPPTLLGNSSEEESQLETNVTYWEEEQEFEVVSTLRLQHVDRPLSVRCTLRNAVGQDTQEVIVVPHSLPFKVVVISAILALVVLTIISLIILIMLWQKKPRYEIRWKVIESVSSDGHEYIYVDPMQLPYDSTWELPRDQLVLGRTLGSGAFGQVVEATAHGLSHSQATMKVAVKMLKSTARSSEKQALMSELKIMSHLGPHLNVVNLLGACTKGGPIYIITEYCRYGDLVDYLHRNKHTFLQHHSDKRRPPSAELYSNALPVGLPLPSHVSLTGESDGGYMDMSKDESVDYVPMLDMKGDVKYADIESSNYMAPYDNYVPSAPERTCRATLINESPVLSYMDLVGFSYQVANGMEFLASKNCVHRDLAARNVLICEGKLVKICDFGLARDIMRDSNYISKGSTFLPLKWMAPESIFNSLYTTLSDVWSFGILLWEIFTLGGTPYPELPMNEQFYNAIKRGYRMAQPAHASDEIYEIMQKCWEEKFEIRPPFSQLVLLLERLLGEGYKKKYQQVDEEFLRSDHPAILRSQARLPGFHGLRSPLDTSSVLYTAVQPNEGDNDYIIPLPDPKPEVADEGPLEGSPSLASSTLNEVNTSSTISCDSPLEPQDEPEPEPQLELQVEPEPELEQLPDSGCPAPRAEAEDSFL
T1 sequence (P35918 784-1345 limits assumed): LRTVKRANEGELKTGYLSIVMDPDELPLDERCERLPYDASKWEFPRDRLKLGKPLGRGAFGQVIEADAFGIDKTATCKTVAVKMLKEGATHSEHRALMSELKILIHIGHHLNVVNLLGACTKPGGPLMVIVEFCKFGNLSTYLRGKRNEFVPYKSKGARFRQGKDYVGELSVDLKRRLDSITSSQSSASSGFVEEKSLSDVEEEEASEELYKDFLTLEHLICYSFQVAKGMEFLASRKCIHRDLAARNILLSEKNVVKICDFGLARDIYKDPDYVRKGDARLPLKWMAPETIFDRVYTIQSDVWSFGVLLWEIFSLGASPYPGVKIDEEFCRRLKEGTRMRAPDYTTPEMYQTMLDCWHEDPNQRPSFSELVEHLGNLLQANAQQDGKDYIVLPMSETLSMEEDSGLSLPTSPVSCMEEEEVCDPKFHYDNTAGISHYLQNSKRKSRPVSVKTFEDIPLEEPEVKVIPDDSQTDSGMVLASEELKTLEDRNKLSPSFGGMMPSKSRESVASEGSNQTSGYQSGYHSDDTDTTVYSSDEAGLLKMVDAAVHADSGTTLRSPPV

On to `O=C(CN1CCCC1)Nc1ccc(Nc2ncc(-c3ccsc3)cn2)cc1` [Example 29, 2-pyrrolidin-1-yl-N-{4-[(5-thien-3-ylpyrimidin-2-yl)amino]phenyl}acetamide], for which the values for the IC50 against GST-Flk1 and on PDGFR were 4 µM and 0.43 µM, respectively.
Taken in the same sequence, the figures for `O=C(Nc1ccc(Nc2ncc(-c3ccsc3)cn2)cc1)N1CCC(N2CCCC2)CC1` [Example 30, 4-pyrrolidin-1-yl-N-{4-[(5-thien-3-ylpyrimidin-2-yl)amino]phenyl}piperidine-1-carboxamide] were 6.2 µM and 0.5 µM.
Taken in the same sequence, the figures for `O=C(NCCN1CCOCC1)Nc1ccc(Nc2ncc(-c3ccsc3)cn2)cc1` [Example 31, N-(2-morpholin-4-ylethyl)-N′-{4-[(5-thien-3-ylpyrimidin-2-yl)amino]phenyl}urea] were 5.2 µM and 0.78 µM.
Taken in the same sequence, the figures for `CCN(CC)CCNC(=O)Nc1ccc(Nc2ncc(-c3ccsc3)cn2)cc1` [Example 32, N-[2-(diethylamino)ethyl]-N′-{4-[(5-thien-3-ylpyrimidin-2-yl)amino]phenyl}urea] were 5.7 µM and 0.53 µM.
With `O=C(Nc1ccc(Nc2ncc(-c3ccsc3)cn2)cc1)N1CCCC1CN1CCCC1` (stereo not shown) [Example 33, 2-(pyrrolidin-1-ylmethyl)-N-{4-[(5-thien-3-ylpyrimidin-2-yl)amino]phenyl}pyrrolidine-1-carboxamide], the results for the half-inhibitory concentration (IC50) against GST-Flk1 and on PDGFR were 4.55 µM and 0.66 µM, respectively.
Consider `O=C(Nc1ccc(Nc2ncc(-c3ccsc3)cn2)cc1)N1CCOCC1` [Example 34, N-{4-[(5-thien-3-ylpyrimidin-2-yl)amino]phenyl}morpholine-4-carboxamide], for which the IC50 (commonly the point on the concentration scale where inhibition reaches its midpoint) is 4.7 µM at GST-Flk1 and 1 µM on PDGFR.
As to `CN1CCN(C(=O)Nc2ccc(Nc3ncc(-c4ccsc4)cn3)cc2)CC1` [Example 35, 4-methyl-N-{4-[(5-thien-3-ylpyrimidin-2-yl)amino]phenyl}piperazine-1-carboxamide], the IC50 on GST-Flk1 was determined as 5.4 µM; on PDGFR it was 0.47 µM.
Take `CC(=O)Nc1cccc(Nc2ncc(-c3ccsc3)cn2)c1` [Example 36, N-{3-[(5-thien-3-ylpyrimidin-2-yl)amino]phenyl}acetamide]: the IC50 against GST-Flk1 turned out to be 3.5 µM; at PDGFR, 0.66 µM.
Taken in the same sequence, the figures for `CC(C)Nc1cccc(Nc2ncc(-c3ccsc3)cn2)c1` [Example 37, N-isopropyl-N′-(5-thien-3-ylpyrimidin-2-yl)benzene-1,3-diamine] were 3.7 µM and 0.56 µM.
Taken in the same sequence, the figures for `CCN(CC)c1cccc(Nc2ncc(-c3ccsc3)cn2)c1` [Example 38, N,N-diethyl-N′-(5-thien-3-ylpyrimidin-2-yl)benzene-1,3-diamine] were 3 µM and 1.8 µM.
Turning to `c1cc(Nc2ncc(-c3ccsc3)cn2)cc(N2CCOCC2)c1` [Example 39, N-(3-morpholin-4-ylphenyl)-5-thien-3-ylpyrimidin-2-amine], the IC50 on GST-Flk1 worked out at 2 µM; at PDGFR it was 0.15 µM.
On to `Cc1ccc(Nc2ncc(-c3ccsc3)cn2)cc1NC(=O)c1ccc(CN2CCN(C)CC2)cc1` [Example 40, 4-(4-methyl-piperazin-1-ylmethyl)-N-[2-methyl-5-(5-thiophen-3-yl-pyrimidin-2-ylamino)-phenyl]-benzamide], for which the IC50 was 10 µM on GST-Flk1 and 2.6 µM on PDGFR.
Regarding `CCN(CC)CC(=O)Nc1cccc(Nc2cnc(-c3ccsc3)cn2)c1` [Example 41, N-(3-(5-(thiophen-3-yl)pyrazin-2-ylamino)phenyl)-2-(diethylamino)acetamide], the IC50 on GST-Flk1 and on PDGFR was over 20 µM each time.
As for `O=C(CN1CCOCC1)Nc1cccc(Nc2cnc(-c3ccsc3)cn2)c1` [Example 42, 2-morpholin-4-yl-N-{3-[(5-thien-3-ylpyrazin-2-yl)amino]phenyl}acetamide], the half-maximal inhibitory concentration (IC50) against GST-Flk1 and at PDGFR was over 20 µM each time.
In the case of `O=C(CN1CCCC1CN1CCCC1)Nc1cccc(Nc2ncc(-c3ccsc3)cn2)c1` (stereo not shown) [Example 47, N-(3-(5-(thiophen-3-yl)pyrimidin-2-ylamino)phenyl)-2-(2-((pyrrolidin-1-yl)methyl)pyrrolidin-1-yl)acetamide], the IC50 at GST-Flk1 turned out to be 2.3 µM; at PDGFR it was 0.18 µM.
Taken in the same sequence, the figures for `O=C(Nc1cccc(Nc2ncc(-c3ccsc3)cn2)c1)N1CCCC1CN1CCCC1` (stereo not shown) [Example 48] were 3.5 µM and 0.21 µM.
Taken in the same sequence, the figures for `O=C(NCCN1CCOCC1)Nc1cccc(Nc2ncc(-c3ccsc3)cn2)c1` [Example 49] were 1.9 µM and 0.14 µM.
Regarding `CCN(CC)CCNC(=O)Nc1cccc(Nc2ncc(-c3ccsc3)cn2)c1` [Example 50], the concentration for half-maximal inhibition (IC50) on GST-Flk1 stood at 1.7 µM; at PDGFR, 0.16 µM.
Regarding `O=C(NCC(O)CN1CCOCC1)Nc1cccc(Nc2ncc(-c3ccsc3)cn2)c1` (stereo not shown) [Example 51, 1-(2-hydroxy-3-morpholin-4-yl-propyl)-3-[3-(5-thiophen-3-yl-pyrimidin-2-ylamino)-phenyl]-urea], the half-maximal inhibitory concentration (IC50) was 2 µM against GST-Flk1 and 0.12 µM at PDGFR.
Taken in the same sequence, the figures for `O=C(NCCN1CCS(=O)(=O)CC1)Nc1cccc(Nc2ncc(-c3ccsc3)cn2)c1` [Example 52, 1-[2-(1,1-dioxo-1λ^6-thiomorpholin-4-yl)ethyl]-3-[3-(5-thiophen-3-yl-pyrimidin-2-ylamino)-phenyl]-urea] were 1.6 µM and 0.36 µM.
With `CN1CCN(CCNC(=O)Nc2cccc(Nc3ncc(-c4ccsc4)cn3)c2)CC1` [Example 53, 1-[2-(4-methyl-piperazin-1-yl)-ethyl]-3-[3-(5-thiophen-3-yl-pyrimidin-2-ylamino)-phenyl]-urea], the IC50 against GST-Flk1 worked out at 2.3 µM; at PDGFR, 0.22 µM.
As to `O=C(Nc1cccc(Nc2ncc(-c3ccsc3)cn2)c1)N1CCC(N2CCCC2)CC1` [Example 54, 4-pyrrolidin-1-yl-piperidine-1-carboxylic acid [3-(5-thiophen-3-yl-pyrimidin-2-ylamino)-phenyl]-amide], the half-inhibitory concentration (IC50) came to 2.3 µM on GST-Flk1 and 0.18 µM at PDGFR.
Regarding `O=C(CN1CCC(N2CCCC2)CC1)Nc1cccc(Nc2ncc(-c3ccsc3)cn2)c1` [Example 55, 2-(4-pyrrolidin-1-yl-piperidine-1-yl)-N-[3-(5-thiophen-3-yl-pyrimidin-2-ylamino)-phenyl]-acetamide], the IC50 amounted to 2.7 µM against GST-Flk1 and 0.19 µM on PDGFR.
